{"source": "patent US20160310524A1", "about": "“COMPOSITIONS AND METHODS FOR TREATING DYSREGULATED SYSTEMS” (priority 2013, published 2016)", "format_in_all_cases": "in vivo", "key": {"[1]": {"tested_on": "patients where involvement with glutamate is suspected", "assay": "Low dose (Trojan horse) treatment of patients where involvement with glutamate is suspected", "text": "For example one of the stimulating systems in the body is the glutamate receptor mechanism. Some of the biggest challenges in neuropsychiatric pharmacology is breaking through the defenses of these “buffered” systems like NMDA. The “Trojan horses” can enter into the receptor mechanism and change it without disturbing the situation. This explains why certain diseases that are not well treated, such as autism, have responded to any number of treatments but none of them consistently. If the balance between more autistic and less autistic behavior is very much leaning toward improved socialization, then perhaps any “Trojan horse” that can slip past the “fortress” of the glutamate receptors that are refusing to participate may add enough positive to affect socialization and the child has a miraculous response to the minute dose of medicine.\nExamples: low dose Abilify and mecamylamine have been successful in treating patients where involvement with glutamate is suspected. Indeed we have few disorders that are known to be caused by glutamate despite the large role it plays in brain function. One medication that has been used for several years is Mematine, which is supposed to help memory in patients with Alzheimer's. […] Another example is the destructive flashbacks seen when individuals have taken PCP. […]"}, "[2]": {"tested_on": "subject with dissociation disorder", "assay": "Example protocol for memantine (Namenda) in dissociation disorder: sample chart for an example patient", "procedure": "Example Protocol for Memantine (Namenda®)\nDay 1: Give Namenda ½ of a 5 mg tablet in the morning.\nDay 2: If the patient has absolutely no positive change in their behavior in the form of genuine social interactions, give another ½ of a 5 mg tablet in the morning.\nDay 3: No matter what happened, give no Namenda on Day 3.\nIf there has been no improvement, give ½ of a 5 mg tablet in the morning.\nDay 5: If there has been no improvement since Day 1, give ½ of a 5 mg tablet in the morning.\nDay 6: No matter what happens, give no Namenda on Day 6.\nDay 7: If there has been only minimal improvement after a total of 7.5 mg of Namenda, give ½ of a 5 mg Namenda. If there has been no improvement after a total of 10 mg of Namenda, give ½ of a 5 mg Namenda. Otherwise, give no Namenda on Day 7. […]\nHere is a sample chart for an example patient following the steps and a plan for week 2. […]\nSide effects of Namenda: how to know if the dose is too high. The negative social effects of Namenda can be described as disinhibitory. This mean that the person's normal understanding of personal boundaries with others is lost—i.e., the patient loses their inhibition like someone who is intoxicated. They may be excessively aggressive both verbally and physically about incidental matters. They may become intrusive into other people's business. They may become flirtatious or aggressive. If a person has any of these behaviors it most likely means that the Namenda dose is getting too high."}, "[3]": {"assay": "Effect of memantine on socialization in people", "conditions": "in many people"}, "[4]": {"tested_on": "seizure patient with rage behavior", "assay": "Case number 2: seizure patient with rage behavior", "procedure": "The patient had been on a large dose thioridazine (400 mg/day).\nOne drives fear and involves beta-receptors. The other drives aggression and involves alpha-receptors."}, "[5]": {"tested_on": "schizophrenic acute psychosis patients and patients having autism spectrum social disorder", "assay": "Mecamylamine in patients with schizophrenic acute psychosis or autism spectrum social disorder: verbal communication", "procedure": "In some embodiments, the effective dose of mecamylamine is 0.025 mg/kg to about 0.125 mg/kg twice a week. In some cases, the effective dose of mecamylamine in schizophrenic acute psychosis patients and patients having autism spectrum social disorder results in improved verbal communication from 50 to 150%. In some embodiments, one dose may have an effect of improved verbal communication up to two months."}, "[6]": {"conditions": "Day 1, dose given ½ of a 5 mg Namenda"}, "[7]": {"conditions": "Day 2, dose given ½ of a 5 mg Namenda"}, "[8]": {"conditions": "Day 5, dose given ½ of a 5 mg Namenda"}}}
{"compound": "O=C1CCc2ccc(OCCCCN3CCN(c4cccc(Cl)c4Cl)CC3)cc2N1", "note": "[Abilify, aripiprazole]", "values": [{"measurement": "success of treatment", "setting": "[1]", "result": "successful"}]}
{"compound": "CC12CC3CC(C)(C1)CC(N)(C3)C2", "note": "[Namenda, memantine]", "values": [{"measurement": "Improvement", "setting": "[2]; [6]", "result": "None"}, {"measurement": "Side Effects or Disinhibition", "setting": "[2]; [6]", "result": "None"}, {"measurement": "Improvement", "setting": "[2]; [7]", "result": "None"}, {"measurement": "Side Effects or Disinhibition", "setting": "[2]; [7]", "result": "None"}, {"measurement": "Degree or Detail of Improvement", "setting": "[2]; Day 3, no dose given", "result": "Spoke normally"}, {"measurement": "Improvement", "setting": "[2]; Day 3, no dose given", "result": "Slight"}, {"measurement": "Side Effects or Disinhibition", "setting": "[2]; Day 3, no dose given", "result": "None"}, {"measurement": "Degree or Detail of Improvement", "setting": "[2]; Day 4, no dose given", "result": "Same as Day 3"}, {"measurement": "Improvement", "setting": "[2]; Day 4, no dose given", "result": "Slight"}, {"measurement": "Side Effects or Disinhibition", "setting": "[2]; Day 4, no dose given", "result": "None"}, {"measurement": "Degree or Detail of Improvement", "setting": "[2]; [8]", "result": "Ate their meal"}, {"measurement": "Improvement", "setting": "[2]; [8]", "result": "Good"}, {"measurement": "Side Effects or Disinhibition", "setting": "[2]; [8]", "result": "None"}, {"measurement": "Degree or Detail of Improvement", "setting": "[2]; Day 6, no dose given", "result": "Same as Day 4"}, {"measurement": "Improvement", "setting": "[2]; Day 6, no dose given", "result": "Continues Good"}, {"measurement": "Side Effects or Disinhibition", "setting": "[2]; Day 6, no dose given", "result": "None"}, {"measurement": "Improvement", "setting": "[2]; Day 7, no dose given", "result": "Same"}, {"measurement": "Side Effects or Disinhibition", "setting": "[2]; Day 7, no dose given", "result": "None"}, {"measurement": "effect on socialization", "setting": "[3]", "result": "increase their socialization"}, {"measurement": "effect on socialization", "setting": "[3]; listed as Mematine", "result": "increasing their socialization"}]}
{"compound": "COc1cc2nc(N3CCN(C(=O)C4COc5ccccc5O4)CC3)nc(N)c2cc1OC", "note": "(stereo not drawn) [doxazosin]", "values": [{"measurement": "effect on severe psychotic symptoms", "setting": "[4]; doxazosin added, patient on propranolol and haloperidol", "result": "stopped the severe psychotic symptoms"}]}
{"compound": "CNC1(C)C2CCC(C2)C1(C)C", "note": "(stereo not drawn) [mecamylamine]", "values": [{"measurement": "duration of effect of improved verbal communication", "setting": "[5]; one dose", "result": "up to two"}, {"measurement": "duration of effect of improved verbal communication", "setting": "[5]; one weekly protocol", "result": "up to 4 months"}, {"measurement": "success of treatment", "setting": "[1]", "result": "successful"}]}
{"compound": "CC(C)NCC(O)COc1cccc2ccccc12", "note": "(stereo not drawn) [propranolol]", "values": [{"measurement": "character of rage when it occurred", "setting": "[4]; on propranolol, compared with before beta blocker treatment", "result": "wilder and more psychotic"}, {"measurement": "frequency of rages", "setting": "[4]; on the beta blocker propranolol", "result": "less frequent rages"}]}
